The record followed here is patent US20230064189A1, “1H-PYRAZOLO[3,4-D]PYRIMIDINE COMPOUNDS USEFUL FOR THE TREATMENT OF PLATINUM-RESISTANT CANCER” (IMPERIAL COLLEGE INNOVATIONS LIMITED, priority 2019, published 2023).

The target of one experiment is DNA-PK (Homo sapiens, UniProt P78527). Description: DNA-PK enzymatic inhibition assay (HTRF KinEASE). Type of experiment: biochemical. The note with it: read-out: DNA-PK pIC50 (converted). Here is the method:
The IC50 values of Example compounds of the invention for DNA-PK were measured using the HTRF KinEASE assay as described above.

The target in another experiment is AKT2 (Homo sapiens, UniProt P31751). In words: AKT2 enzymatic inhibition assay (HTRF KinEASE). Type of experiment: biochemical. The note with it: read-out: AKT2 pIC50 (converted). As for the experimental part: (§1) The IC50 values of Example compounds of the invention for AKT1, AKT2 and AKT3 were measured using HTRF (Homogeneous Time Resolved Fluorescence) KinEASE assays (62ST3PEB—1000 tests or 62ST3PEC—20,000 tests) from cisbio.com, according to manufacturer's instructions.
(Time-resolved FRET reads energy transfer from a long-lived donor to a nearby acceptor.)

The next experiment addresses AKT1 (Homo sapiens, UniProt P31749). In words: AKT1 enzymatic inhibition assay (HTRF KinEASE). To be noted: read-out: AKT1 pIC50 (converted). Type of experiment: biochemical. As for the experimental part: as §1
Experiment [1] deals with platinum resistant epithelial ovarian cancer cell line SKOV3. In words: Isobologram (Loewe synergy/antagonism, MTT viability) with cisplatin in SKOV3. Format: cell-based. To be noted: SKOV3, 72 hours, MTT readout. Here is the method: (§2) . Data shown is n=3. Decreasing negative numbers within each table indicate increasing levels of antagonism, increasing positive numbers indicate increasing levels of synergy between cisplatin and inhibitor compounds.
(§3) Cell viability was determined for different assays (as described in FIGS. 1 and 2, Table 5) in optically clear 96 well plates using the standard 3-(4, 5-dimethylthiazol-2-yl)-2, 5-diphenyl tetrazolium bromide (MTT) assay, which is a colorimetric method for determining the number of metabolically active cells in cytotoxicity assays. MTT is bioreduced by mitochondrial dehydrogenase enzymes into a coloured solid formazan product. […] The following day, the optical density was read at 570 nm and analysis performed as per each assay type.
(§4) All cell lines (PEO1, PEO4 and SKOV3) were seeded out 24 hours prior to treatment into 96 well plates at 10,000 cells per well in triplicate for each inhibitor compound. […] Following 72 hours incubation, cell viability was assessed using the MTT assay (n=3). IC50 values for each compound was determined using GraphPad Prism software, non-linear regression of log (inhibitor) versus response (three parameters). All isobologram assays used the standard MTT protocol as described above for assay readout. […] Following 72 h incubation, cell viability was assessed using MTT assays as described above. […]

The test system of a further experiment is SKOV3 cells. In words: Phenotypic apoptosis assay (caspase 3/7 normalised to MTT) plus/minus cisplatin in SKOV3. Format: cell-based. To be noted: for activity in phenotypic in vitro apoptosis platinum re-sensitisation assays: inhibitor 6.67 μM + cisplatin 25 μM. As for the experimental part: Data shown is n=3±s.e.m; ** p<0.01, * p<0.0^5.
(§5) MTT is bioreduced by mitochondrial dehydrogenase enzymes into a coloured solid formazan product. MTT reagent (Sigma, UK) was initially prepared by dissolving in PBS at a concentration of 3 mg/ml. […] After incubation for 3 h at 37° C. 5% CO2, an equal volume of stop solution (10% SDS in 0.01% HCl) was added and formed formazan crystals were allowed to dissolve shaking overnight. The following day, the optical density was read at 570 nm and analysis performed as per each assay type.
(§6) The caspase 3/7 activity of cells following treatment with inhibitor compounds or vehicle (DMSO) was determined using the Caspase-Glo® 3/7 Assay (Catalogue number G8093, Promega, US) according to manufacturer's instructions. Briefly, 10,000 cells per well for PEO1 and PEO4 cell lines or 5000 cells per well for SKOV3 cell line were grown in 96 well plates in a final volume of 50 μl and following relevant drug treatment of cells (example compound±cisplatin, comparative example compound±cisplatin, or vehicle±cisplatin) for 24 hours, an equal volume of Caspase-Glo® Reagent containing a luminogenic substrate for Caspase 3 and Caspase 7 was added i.e. if cells cultured in 50 μl of media, 50 μl of caspase reagent was added. After 1 h incubation at room temperature in the dark, the luminescence of each sample was measured in a plate-reading luminometer (LUMIstar OPTIMA, BMG Labtech, Germany). Caspase 3/7 activity data was normalised to corresponding viability data from MTT and analysis was performed according to each experimental set-up.
(§7) Phenotypic apoptosis assays were performed to determine the level of caspase 3/7 dependent apoptotic induction of each inhibitor compound in the presence or absence of cisplatin (cddp). PEO4 and SKOV3 cells were seeded out 24 hours prior to drug treatments. […] 5% CO2. […] Duplicate plates were set up for each experiment for caspase and MTT assays. Caspase and MTT assays were carried out according to the protocols described above.
(§8) Data shown in FIGS. 2A and 2B are n=3±s.e.m. Statistical significance was calculated using student t-test using GraphPad Prism software ** p<0.01, * p<0.05.

In experiment [2] the test system is platinum resistant cell line PEO4. Description: Isobologram (Loewe synergy/antagonism, MTT viability) with cisplatin in PEO4. Format: cell-based. The note with it: PEO4, 72 hours, MTT readout. Here is the method:
as §2, §3, §4

The subject of experiment [3] is PEO4 cells. In words: Phenotypic apoptosis assay (caspase 3/7 normalised to MTT) plus/minus cisplatin in PEO4. Format: cell-based. The note with it: 24 hours. Here is the method: as §5, §6, §7, §8
A further experiment concerns the target AKT3 (Homo sapiens, UniProt Q9Y243). In words: AKT3 enzymatic inhibition assay (HTRF KinEASE). Format: biochemical. To be noted: read-out: AKT3 pIC50 (converted). Here is the method: as §1
Experiment [4] relates to PEO4 cells. In words: Relative re-sensitisation ratio of apoptosis induction (caspase 3/7 normalised to MTT) with cisplatin. To be noted: compound at 20 μM, triciribine at 25 μM, cisplatin 25 μM, 24 h. Format: cell-based. As for the experimental part: Cell viability was determined for different assays (as described in FIGS. 1 and 2, Table 5) in optically clear 96 well plates using the standard 3-(4, 5-dimethylthiazol-2-yl)-2, 5-diphenyl tetrazolium bromide (MTT) assay, which is a colorimetric method for determining the number of metabolically active cells in cytotoxicity assays. MTT is bioreduced by mitochondrial dehydrogenase enzymes into a coloured solid formazan product. MTT reagent (Sigma, UK) was initially prepared by dissolving in PBS at a concentration of 3 mg/ml. Following relevant drug treatments at different time points and cell lines (described in results section and FIGS. 1 and 2), MTT reagent was added to each experimental well at a final concentration of 0.5 mg/ml. After incubation for 3 h at 37° C. 5% CO2, an equal volume of stop solution (10% SDS in 0.01% HCl) was added and formed formazan crystals were allowed to dissolve shaking overnight. The following day, the optical density was read at 570 nm and analysis performed as per each assay type.
as §6
. Apoptosis (caspase 3/7) and viability (MTT) assays were carried out as described for each assay protocols and the phenotypic apoptosis assays above. Relative apoptosis induction was inferred from caspase 3/7 assay values normalised to the standard MTT viability assay values of each corresponding well. […]

Experiment [5] deals with platinum sensitive cell line PEO1. Description: Isobologram (Loewe synergy/antagonism, MTT viability) with cisplatin in PEO1. Type of experiment: cell-based. The note with it: PEO1, 72 hours, MTT readout. Here is the method: as §2, §3, §4
Setting [6] is: inhibitor 10 μM + cisplatin 25 μM, 24 hours.
Where [7] appears, read: inhibitor 10 μM + cisplatin 25 μM.

Sequence of AKT2 (P31751 152-409 limits assumed): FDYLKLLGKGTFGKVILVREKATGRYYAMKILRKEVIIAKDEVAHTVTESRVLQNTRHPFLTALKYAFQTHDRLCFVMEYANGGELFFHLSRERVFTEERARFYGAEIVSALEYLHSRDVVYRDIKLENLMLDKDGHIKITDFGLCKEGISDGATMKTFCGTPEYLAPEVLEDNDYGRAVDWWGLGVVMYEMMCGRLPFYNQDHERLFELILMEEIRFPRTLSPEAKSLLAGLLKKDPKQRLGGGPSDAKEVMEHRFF
Sequence of AKT3 (Q9Y243 148-405 limits assumed): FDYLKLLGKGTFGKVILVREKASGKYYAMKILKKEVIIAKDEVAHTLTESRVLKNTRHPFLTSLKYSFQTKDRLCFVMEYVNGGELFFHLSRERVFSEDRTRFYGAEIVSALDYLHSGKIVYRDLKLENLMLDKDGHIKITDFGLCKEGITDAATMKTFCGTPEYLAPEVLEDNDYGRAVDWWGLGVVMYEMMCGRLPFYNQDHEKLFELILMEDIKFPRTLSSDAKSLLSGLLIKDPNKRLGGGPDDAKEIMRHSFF
Sequence of AKT1 (P31749 150-408 limits assumed): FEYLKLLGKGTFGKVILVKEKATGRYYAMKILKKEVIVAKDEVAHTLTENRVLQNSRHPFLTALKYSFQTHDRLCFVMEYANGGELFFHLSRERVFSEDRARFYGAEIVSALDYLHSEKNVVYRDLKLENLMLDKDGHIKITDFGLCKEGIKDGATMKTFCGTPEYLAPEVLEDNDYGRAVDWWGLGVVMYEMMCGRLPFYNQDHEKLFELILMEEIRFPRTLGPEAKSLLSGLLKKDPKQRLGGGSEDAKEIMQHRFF

For `CN(C)CC(c1ccc(Cl)cc1)N1CCN(c2ncnc3[nH]nc(Br)c23)CC1` (centres unmarked) [Example 1, 2-[4-(3-bromo-1H-pyrazolo[3,4-d]pyrimidin-4-yl)piperazin-1-yl]-2-(4-chlorophenyl)-N,N-dimethyl-ethanamine], the IC50 was 0.24 nM on DNA-PK, 0.55 nM at AKT2, 0.324 nM on AKT1 and 0.112 nM at AKT3. Moreover, the figures for the “synergy in combination with cisplatin (Loewe isobologram analysis)” value in [1], in experiment [2] and in experiment [5] were “strong synergy”, “strong synergy” and “superior synergy”, respectively. Besides, the “apoptosis (re-sensitisation) in combination with cisplatin compared to cisplatin alone” value in the experiment with SKOV3 cells (inhibitor 2 μM + cisplatin 25 μM, 24 hours) is recorded as “statistically significant increases in apoptosis”; in the experiment on PEO4 cells [3] (inhibitor 2 μM + cisplatin 25 μM) it was “statistically significant increases in apoptosis”. The “activity in phenotypic in vitro apoptosis platinum re-sensitisation assays” value (“activity in phenotypic” below) in the experiment with SKOV3 cells is on record as “active”. In addition, the “Relative re-sensitisation ratio of apoptosis induction (caspase 3/7) relative to triciribine phosphate” value (“Relative re-sensitisation ratio” below) in the experiment on PEO4 cells [4] was 3.0.
For the compound `CN(C)CCNC(c1ccc(Cl)cc1)C1CCN(c2ncnc3[nH]nc(C(F)(F)F)c23)CC1` (single isomer, unassigned; (-)) [Example 12b, (−)-N^1-((4-chlorophenyl)(1-(3-(trifluoromethyl)-1H-pyrazolo[3,4-d]pyrimidin-4-yl)piperidin-4-yl)methyl)-N^2,N^2-dimethylethane-1,2-diamine], the IC50 is 5.37 nM on DNA-PK, 5.5 nM at AKT2, 3.39 nM at AKT1 and 0.832 nM at AKT3. Besides, the “activity in phenotypic” value in the experiment on SKOV3 cells is “active”. The “Relative re-sensitisation ratio” value with PEO4 cells [4] is reported as 1.0.
Consider `O=c1cc(N2CCOCC2)oc2c(-c3cccc4c3sc3ccccc34)cccc12` [NU7441, 8-dibenzothiophen-4-yl-2-morpholin-4-ylchromen-4-one], for which the “apoptosis (re-sensitisation) in combination with cisplatin” value with SKOV3 cells (setting [6]) and with PEO4 cells [3] (setting [7]) was “showed re-sensitisation” throughout.
As for `CN(C)CCNC(c1ccc(Cl)cc1)C1CCN(c2ncnc3[nH]nc(C(F)(F)F)c23)CC1` (single isomer, unassigned; (+)) [Example 12a, (+)-N^1-((4-chlorophenyl)(1-(3-(trifluoromethyl)-1H-pyrazolo[3,4-d]pyrimidin-4-yl)piperidin-4-yl)methyl)-N^2,N^2-dimethylethane-1,2-diamine], the IC50 at DNA-PK was 0.158 nM; on AKT2, 1.41 nM; at AKT1, 0.575 nM; on AKT3, 0.219 nM. In the experiment on SKOV3 cells, the “activity in phenotypic” value is “active”. For the same compound, in the experiment with PEO4 cells [4], the “Relative re-sensitisation ratio” value was determined as 1.2.
On to `CC(C)NC[C@@H](C(=O)N1CCN(c2ncnc3c2[C@H](C)C[C@H]3O)CC1)c1ccc(Cl)cc1` [Ipatasertib, (2S)-2-(4-chlorophenyl)-1-[4-[(5R,7R)-7-hydroxy-5-methyl-6,7-dihydro-5H-cyclopenta[d]pyrimidin-4-yl]piperazin-1-yl]-3-(propan-2-ylamino)propan-1-one], for which the “apoptosis (re-sensitisation) in combination with cisplatin” value in the experiment on SKOV3 cells (inhibitor 20 μM + cisplatin 25 μM, 24 hours) is on record as “showed re-sensitisation”; in the experiment with PEO4 cells [3] (inhibitor 20 μM + cisplatin 25 μM), “showed re-sensitisation”.
With `CCn1c(-c2nonc2N)nc2c(C#CC(C)(C)O)ncc(OC[C@H]3CCCNC3)c21` [GSK-3g, 4-[2-(4-amino-1,2,5-oxadiazol-3-yl)-1-ethyl-7-[[(3S)-piperidin-3-yl]methoxy]imidazo[4,5-c]pyridin-4-yl]-2-methylbut-3-yn-2-ol, reference compound], the IC50 at DNA-PK was 10.5 nM. In addition, in the experiment with SKOV3 cells, the “activity in phenotypic” value was “inactive”.
For `Cn1ncc(Cl)c1-c1cc(C(=O)N[C@H](CN)Cc2ccc(F)c(F)c2)oc1Cl` [Uprosertib, N-[(2S)-1-amino-3-(3,4-difluorophenyl)propan-2-yl]-5-chloro-4-(4-chloro-2-methylpyrazol-3-yl)furan-2-carboxamide], the “apoptosis (re-sensitisation) in combination with cisplatin” value with SKOV3 cells (setting [6]) and in the experiment on PEO4 cells [3] (setting [7]) was “showed re-sensitisation” each time.
For the compound `CO[C@@H](C)Cn1c(=O)n(C)c2cnc3ccc(-c4cncc(C(C)(C)O)c4)cc3c21` [LY3023414, 8-[5-(2-hydroxypropan-2-yl)pyridin-3-yl]-1-[(2S)-2-methoxypropyl]-3-methylimidazo[4,5-c]quinolin-2-one], the “apoptosis (re-sensitisation) in combination with cisplatin” value with SKOV3 cells (setting [6]) and in the experiment with PEO4 cells [3] (setting [7]) was “showed re-sensitisation” in each case.
Take `CN(C)CCOC(c1ccc(Cl)cc1)C1CCN(c2ncnc3[nH]nc(Br)c23)CC1` (centres unmarked) [Example 2, 2-((1-(3-bromo-1H-pyrazolo[3,4-d]pyrimidin-4-yl)piperidin-4-yl)(4-chlorophenyl)methoxy)-N,N-dimethylethan-1-amine]: the IC50 was 3.89 nM on DNA-PK, 10.5 nM on AKT2, 5.75 nM on AKT1 and 3.63 nM on AKT3. In the experiment with SKOV3 cells, the “activity in phenotypic” value was “active”. In addition, the “Relative re-sensitisation ratio” value in the experiment on PEO4 cells [4] amounted to 2.9.
`Cn1ncc(Cl)c1-c1cc(C(=O)N[C@H](CN)Cc2cccc(F)c2)sc1Cl` [Afuresertib, N-[(2S)-1-amino-3-(3-fluorophenyl)propan-2-yl]-5-chloro-4-(4-chloro-2-methylpyrazol-3-yl)thiophene-2-carboxamide]: the “apoptosis (re-sensitisation) in combination with cisplatin” value in the experiment with SKOV3 cells (setting [6]) and in the experiment on PEO4 cells [3] (setting [7]) was “showed re-sensitisation” in each case.
